Test results from patent US7270965B2, “Assays to screen for compounds that bind the dorsal root receptor” (AstraZeneca AB, priority 2000, dated 2007).

How the values were obtained:
Type in all cases: cell-based
[1] = molecular target: T1, rat DRR (Rattus norvegicus, UniProt Q8R4G1); assay: FLIPR calcium mobilization assay (Fluo-3), HEK-293 cells expressing rat DRR
T1 construct: expressed in transfected cells
T1 sequence (Q8R4G1 1-323): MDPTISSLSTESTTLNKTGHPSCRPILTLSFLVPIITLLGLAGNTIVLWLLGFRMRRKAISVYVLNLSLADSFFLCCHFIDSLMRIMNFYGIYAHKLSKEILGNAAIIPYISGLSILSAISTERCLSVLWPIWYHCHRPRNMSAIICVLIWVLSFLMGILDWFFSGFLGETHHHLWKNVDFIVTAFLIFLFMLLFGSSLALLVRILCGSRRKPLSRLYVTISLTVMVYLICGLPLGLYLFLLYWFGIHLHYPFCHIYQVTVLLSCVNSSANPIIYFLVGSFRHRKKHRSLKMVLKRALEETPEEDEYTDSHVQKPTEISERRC
Description: (§1) REK-293 cells were transfected with a mammalian expression construct coding for the rat and human DRRs (pcDNA 3.0 vector, Invitrogen) using the Superfect reagent (Qiagen). A stable receptor pool of DRR was developed by applying a selection marker (G418, 0.9 mg/ml) and the cells were maintained in this selection medium. The presence of mRNA specific for clone DRR was assessed by Northern blot analysis and by the reverse transcriptase polymerase chain reaction (RT-PCR).
(§2) In order to identify the ligand of clone rat and human DRRs, a collection of peptide and non-peptide ligands was obtained from commercial sources (Sigma, CalBiochem, American Peptide Company, Bachem, RBI, Phoenix). The compounds were dissolved in water/DMSO at 3 μM and placed in 96 well microplates. A total of 1000 compounds (peptides and non-peptides) were prepared and tested.
(§3) A functional assay was performed with FLIPR (Fluorescent Imaging Plate Reader, Molecular Devices) using the fluorescent calcium indicator Fluo-3 (Molecular Probes) on a 96 well platform. BEK-293 cells, either expressing the receptor or wild type cells, were loaded with Fluo-3 as follows. […] The cells were analyzed using the FLIPR system to measure the mobilization of intracellular calcium in response to different compounds.

[2] = system: human DRR; assay: FLIPR calcium mobilization assay (Fluo-3), HEK-293 cells expressing human DRR
Description: as §1, §2, §3

[3] = system: parental HEK-293 cells (non-transfected); assay: FLIPR calcium mobilization assay (Fluo-3), parental (non-transfected) HEK-293 cells; conditions: wild type / parental HEK-293 cells, compounds dissolved at 3 μM
Description: as §2
A functional assay was performed with FLIPR (Fluorescent Imaging Plate Reader, Molecular Devices) using the fluorescent calcium indicator Fluo-3 (Molecular Probes) on a 96 well platform. BEK-293 cells, either expressing the receptor or wild type cells, were loaded with Fluo-3 as follows. Stable HEK-293 clones expressing rat and human DRR or parental cells were plated at a density of 10,000 cells/well in a 96 well plate. On the day of the experiment, the DRR cells were loaded with fluorescent solution (Dulbecco's modified medium with 10% fetal bovine serum containing 4 μM Fluo-3 and 20% pluronic acid). The cells were incubated at 37 C for one hour in a humidified chamber. Following the incubation step, cells were washed five times in Hanks' with 20 mM Hepes and 0.1% BSA (pH 7.4). The cells were analyzed using the FLIPR system to measure the mobilization of intracellular calcium in response to different compounds. […]

YGGFMRRVGRPEWWMDYOKRYG-OH [BAM-22P] was tested, and the “calcium response (mobilization of intracellular calcium)” value ([1]; HEK-293 cells expressing clone rat DRR, FLIPR, Fluo-3, compounds dissolved at 3 μM) was “consistently elicited signals”, the “dose-response relationship of calcium response” value ([1]; cells transfected with rat DRR) was “observation of a dose-response relationship” and the “calcium response (mobilization of intracellular calcium)” value ([2]; HEK-293 cells expressing clone human DRR, FLIPR, Fluo-3, compounds dissolved at 3 μM) was “consistently elicited signals”. For the same substance, the “dose-response relationship of calcium response” value ([2]; cells transfected with human DRR) was “observation of a dose-response relationship” and the “calcium response (mobilization of intracellular calcium)” value [3] was “not the wild type cells”.
